Results published in PubChem BioAssay (NCI).
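The compound was tested at five concentrations on cells cultured in 96-well plates, with a 48-hour exposure period. GI50 marks 50% less growth. TGI is the concentration that stops growth completely.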

Columns and labels:
Experiment in all cases: DTP human tumour cell line panel, 48 h
UACC-257 melanoma = system: UACC-257 melanoma
HCT-15 colon = system: HCT-15 colon
SF-295 CNS = system: SF-295 CNS
SK-MEL-28 melanoma = system: SK-MEL-28 melanoma
HS 578T breast = system: HS 578T breast
U251 CNS = system: U251 CNS
MOLT-4 leukemia = system: MOLT-4 leukemia
TK-10 renal = system: TK-10 renal
HOP-62 NSCLC = system: HOP-62 NSCLC
CAKI-1 renal = system: CAKI-1 renal
K-562 leukemia = system: K-562 leukemia
RXF 393 renal = system: RXF 393 renal
OVCAR-3 ovarian = system: OVCAR-3 ovarian
OVCAR-8 ovarian = system: OVCAR-8 ovarian
M14 melanoma = system: M14 melanoma
CCRF-CEM leukemia = system: CCRF-CEM leukemia
A549 NSCLC = system: A549 NSCLC
PC-3 prostate = system: PC-3 prostate
HCC-2998 colon = system: HCC-2998 colon
NCI-H23 lung = system: NCI-H23 lung
HCT-116 colon = system: HCT-116 colon
NCI-H522 lung = system: NCI-H522 lung
MDA-MB-231 breast = system: MDA-MB-231 breast
ACHN renal = system: ACHN renal
RPMI-8226 leukemia = system: RPMI-8226 leukemia
DU-145 prostate = system: DU-145 prostate
HOP-92 NSCLC = system: HOP-92 NSCLC
SW-620 colon = system: SW-620 colon
SK-MEL-5 melanoma = system: SK-MEL-5 melanoma
COLO 205 colon = system: COLO 205 colon
UACC-62 melanoma = system: UACC-62 melanoma
T-47D breast = system: T-47D breast
MCF7 breast = system: MCF7 breast
SN12C renal = system: SN12C renal
SK-MEL-2 melanoma = system: SK-MEL-2 melanoma
SNB-75 CNS = system: SNB-75 CNS
NCI-H460 lung = system: NCI-H460 lung
786-0 renal = system: 786-0 renal
HL-60(TB) leukemia = system: HL-60(TB) leukemia
OVCAR-4 ovarian = system: OVCAR-4 ovarian
HT29 colon = system: HT29 colon
OVCAR-5 ovarian = system: OVCAR-5 ovarian
SF-539 CNS = system: SF-539 CNS
MALME-3M melanoma = system: MALME-3M melanoma
SNB-19 CNS = system: SNB-19 CNS
MDA-MB-435 = system: MDA-MB-435
IGROV1 ovarian = system: IGROV1 ovarian
A498 renal = system: A498 renal
SK-OV-3 ovarian = system: SK-OV-3 ovarian
UO-31 renal = system: UO-31 renal
NCI/ADR-RES ovarian = system: NCI/ADR-RES ovarian
LOX IMVI melanoma = system: LOX IMVI melanoma
NCI-H226 lung = system: NCI-H226 lung
SF-268 CNS = system: SF-268 CNS
KM12 colon = system: KM12 colon
BT-549 breast = system: BT-549 breast
EKVX NSCLC = system: EKVX NSCLC

**Q.** With `Cc1cc(=O)oc2cc(OC/C=C3\CCC(=O)O3)ccc12` as the compound, how does the GI50 (UACC-257 melanoma) read?
**A.** 21.5 µM

**Q.** What about the TGI (UACC-257 melanoma) of the same compound?
**A.** > 62.1 µM

**Q.** What about the GI50 (HCT-15 colon) of the same compound?
**A.** 10.6 µM

**Q.** And the TGI (HCT-15 colon)?
**A.** 23.9 µM

**Q.** What about the GI50 (SF-295 CNS) of the same compound?
**A.** 59 µM

**Q.** And the TGI (SF-295 CNS)?
**A.** > 100 µM

**Q.** And the GI50 (SK-MEL-28 melanoma)?
**A.** 16.4 µM

**Q.** And the TGI (SK-MEL-28 melanoma)?
**A.** 33.6 µM

**Q.** What about the GI50 (HS 578T breast) of the same compound?
**A.** 22.9 µM

**Q.** What about the TGI (HS 578T breast) of the same compound?
**A.** > 87.4 µM

**Q.** What about the GI50 (U251 CNS) of the same compound?
**A.** 14.5 µM

**Q.** And the TGI (U251 CNS)?
**A.** 30.9 µM

**Q.** And the TGI (MOLT-4 leukemia)?
**A.** 0.011 µM

**Q.** What about the GI50 (TK-10 renal) of the same compound?
**A.** 12.2 µM

**Q.** What about the TGI (TK-10 renal) of the same compound?
**A.** 27.2 µM

**Q.** And the GI50 (HOP-62 NSCLC)?
**A.** 21.6 µM

**Q.** What about the TGI (HOP-62 NSCLC) of the same compound?
**A.** 58 µM

**Q.** What about the GI50 (CAKI-1 renal) of the same compound?
**A.** 7.59 µM

**Q.** And the TGI (CAKI-1 renal)?
**A.** 26.8 µM

**Q.** And the TGI (K-562 leukemia)?
**A.** 7.84 µM

**Q.** And the GI50 (RXF 393 renal)?
**A.** 13.1 µM

**Q.** And the TGI (RXF 393 renal)?
**A.** 31.9 µM

**Q.** And the GI50 (OVCAR-3 ovarian)?
**A.** 12.2 µM

**Q.** What about the TGI (OVCAR-3 ovarian) of the same compound?
**A.** 28.8 µM

**Q.** And the GI50 (OVCAR-8 ovarian)?
**A.** 23.5 µM

**Q.** What about the TGI (OVCAR-8 ovarian) of the same compound?
**A.** > 74.5 µM

**Q.** What about the GI50 (M14 melanoma) of the same compound?
**A.** 9.51 µM

**Q.** What about the TGI (M14 melanoma) of the same compound?
**A.** 25 µM

**Q.** And the GI50 (CCRF-CEM leukemia)?
**A.** 3.96 µM

**Q.** And the TGI (CCRF-CEM leukemia)?
**A.** 30.3 µM

**Q.** What about the GI50 (A549 NSCLC) of the same compound?
**A.** 31.2 µM

**Q.** And the TGI (A549 NSCLC)?
**A.** > 91.4 µM

**Q.** What about the GI50 (PC-3 prostate) of the same compound?
**A.** 9.01 µM

**Q.** And the TGI (PC-3 prostate)?
**A.** 34.1 µM

**Q.** And the GI50 (HCC-2998 colon)?
**A.** 16 µM

**Q.** And the TGI (HCC-2998 colon)?
**A.** 31.4 µM

**Q.** And the GI50 (NCI-H23 lung)?
**A.** 14.4 µM

**Q.** And the TGI (NCI-H23 lung)?
**A.** 29.9 µM

**Q.** And the GI50 (HCT-116 colon)?
**A.** 8.38 µM

**Q.** And the TGI (HCT-116 colon)?
**A.** 24.6 µM

**Q.** What about the GI50 (NCI-H522 lung) of the same compound?
**A.** 7.82 µM

**Q.** And the TGI (NCI-H522 lung)?
**A.** 23 µM

**Q.** What about the GI50 (MDA-MB-231 breast) of the same compound?
**A.** 16.9 µM

**Q.** And the TGI (MDA-MB-231 breast)?
**A.** 34.7 µM

**Q.** And the GI50 (ACHN renal)?
**A.** 5.05 µM

**Q.** And the TGI (ACHN renal)?
**A.** 15.4 µM

**Q.** And the GI50 (RPMI-8226 leukemia)?
**A.** 3.2 µM

**Q.** And the TGI (RPMI-8226 leukemia)?
**A.** 18.7 µM

**Q.** And the GI50 (DU-145 prostate)?
**A.** 5.31 µM

**Q.** And the TGI (DU-145 prostate)?
**A.** 22.9 µM

**Q.** What about the GI50 (HOP-92 NSCLC) of the same compound?
**A.** 12.1 µM

**Q.** And the TGI (HOP-92 NSCLC)?
**A.** 28.4 µM

**Q.** What about the GI50 (SW-620 colon) of the same compound?
**A.** 5.56 µM

**Q.** What about the TGI (SW-620 colon) of the same compound?
**A.** 28 µM

**Q.** What about the GI50 (SK-MEL-5 melanoma) of the same compound?
**A.** 17.6 µM

**Q.** What about the TGI (SK-MEL-5 melanoma) of the same compound?
**A.** 37 µM

**Q.** And the GI50 (COLO 205 colon)?
**A.** 5.8 µM

**Q.** What about the TGI (COLO 205 colon) of the same compound?
**A.** 20.5 µM

**Q.** What about the GI50 (UACC-62 melanoma) of the same compound?
**A.** 13.8 µM

**Q.** What about the TGI (UACC-62 melanoma) of the same compound?
**A.** 28.7 µM

**Q.** And the GI50 (T-47D breast)?
**A.** 14.3 µM

**Q.** And the TGI (T-47D breast)?
**A.** 35.3 µM

**Q.** And the GI50 (MCF7 breast)?
**A.** 5.73 µM

**Q.** And the TGI (MCF7 breast)?
**A.** 27.6 µM

**Q.** What about the GI50 (SN12C renal) of the same compound?
**A.** 15.2 µM

**Q.** What about the TGI (SN12C renal) of the same compound?
**A.** 34.9 µM

**Q.** And the GI50 (SK-MEL-2 melanoma)?
**A.** 17.9 µM

**Q.** And the TGI (SK-MEL-2 melanoma)?
**A.** 60.2 µM

**Q.** And the GI50 (SNB-75 CNS)?
**A.** 16.8 µM

**Q.** And the TGI (SNB-75 CNS)?
**A.** 40.1 µM

**Q.** And the GI50 (NCI-H460 lung)?
**A.** 19.3 µM

**Q.** What about the TGI (NCI-H460 lung) of the same compound?
**A.** > 62.7 µM

**Q.** And the GI50 (786-0 renal)?
**A.** 10.5 µM

**Q.** And the TGI (786-0 renal)?
**A.** 44.1 µM

**Q.** What about the GI50 (HL-60(TB) leukemia) of the same compound?
**A.** 4.47 µM

**Q.** What about the TGI (HL-60(TB) leukemia) of the same compound?
**A.** 32.2 µM

**Q.** And the GI50 (OVCAR-4 ovarian)?
**A.** 15.8 µM

**Q.** What about the TGI (OVCAR-4 ovarian) of the same compound?
**A.** 37.4 µM

**Q.** What about the GI50 (HT29 colon) of the same compound?
**A.** 9.7 µM

**Q.** What about the TGI (HT29 colon) of the same compound?
**A.** 29.3 µM

**Q.** And the GI50 (OVCAR-5 ovarian)?
**A.** 17.1 µM

**Q.** What about the TGI (OVCAR-5 ovarian) of the same compound?
**A.** 36.4 µM

**Q.** And the GI50 (SF-539 CNS)?
**A.** 13.1 µM

**Q.** What about the TGI (SF-539 CNS) of the same compound?
**A.** 46.1 µM

**Q.** What about the GI50 (MALME-3M melanoma) of the same compound?
**A.** 13.6 µM

**Q.** What about the TGI (MALME-3M melanoma) of the same compound?
**A.** 33 µM

**Q.** What about the GI50 (SNB-19 CNS) of the same compound?
**A.** 15.5 µM

**Q.** What about the TGI (SNB-19 CNS) of the same compound?
**A.** 49.2 µM

**Q.** What about the GI50 (MDA-MB-435) of the same compound?
**A.** 7.23 µM

**Q.** What about the TGI (MDA-MB-435) of the same compound?
**A.** 40.9 µM

**Q.** What about the GI50 (IGROV1 ovarian) of the same compound?
**A.** 13.2 µM

**Q.** What about the TGI (IGROV1 ovarian) of the same compound?
**A.** 28.7 µM

**Q.** And the GI50 (A498 renal)?
**A.** 28.7 µM

**Q.** What about the TGI (A498 renal) of the same compound?
**A.** 79.4 µM

**Q.** What about the GI50 (SK-OV-3 ovarian) of the same compound?
**A.** 28.2 µM

**Q.** What about the TGI (SK-OV-3 ovarian) of the same compound?
**A.** > 76 µM

**Q.** And the GI50 (UO-31 renal)?
**A.** 12.8 µM

**Q.** And the TGI (UO-31 renal)?
**A.** 26.3 µM

**Q.** What about the GI50 (NCI/ADR-RES ovarian) of the same compound?
**A.** 23 µM

**Q.** And the TGI (NCI/ADR-RES ovarian)?
**A.** 82.9 µM

**Q.** And the GI50 (LOX IMVI melanoma)?
**A.** 7.99 µM

**Q.** And the TGI (LOX IMVI melanoma)?
**A.** 22.9 µM

**Q.** What about the GI50 (NCI-H226 lung) of the same compound?
**A.** 24 µM

**Q.** And the TGI (NCI-H226 lung)?
**A.** > 63.1 µM

**Q.** What about the GI50 (SF-268 CNS) of the same compound?
**A.** 15.3 µM

**Q.** What about the TGI (SF-268 CNS) of the same compound?
**A.** 50.2 µM

**Q.** And the GI50 (KM12 colon)?
**A.** 18 µM

**Q.** And the TGI (KM12 colon)?
**A.** 47.9 µM

**Q.** And the GI50 (BT-549 breast)?
**A.** 15.8 µM

**Q.** What about the TGI (BT-549 breast) of the same compound?
**A.** 40 µM

**Q.** And the GI50 (EKVX NSCLC)?
**A.** 21 µM

**Q.** What about the TGI (EKVX NSCLC) of the same compound?
**A.** 54.4 µM
